What follows are compounds tested on M17_3TAU(P301L) cells (assay: TAU-induced cytotoxicity (LDH) in the neuroblastoma tauopathy model). Conditions: Homo sapiens, 168 h, inhibition of TAU-induced toxicity, 7 days retinoic acid differentiation, LDH readout.
Format: cell-based
Outline: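 Stably transfected BE-M17 cells expressing human TAU-P301L, seeded in serum-free detection medium, then differentiated with 2.5 μM RA (added in equal volume) for 7 days at 37° C/5% CO2 to induce TAU aggregation. Cytotoxicity = supernatant LDH increase over total LDH; EC50 from dose-dependent inhibition curves.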

| Compound | EC50 |
| --- | --- |
| Cc1ccc(CNC2CC3(C2)CC(Nc2nc(Cc4ccc(Cl)cc4)ns2)C3)c(C)c1 (stereo not shown) [Cpd B319, N-(3-(4-chlorobenzyl)-1,2,4-thiadiazol-5-yl)-N′-(2,4-dimethylbenzyl) spiro[3.3]heptane-2,6-diamine] | 2.1 nM |
| Clc1ccc(Cc2nsc(NC3CC4(CC(NCc5ccc6c(c5)OCO6)C4)C3)n2)cc1 (stereo not shown) [Cpd B320, N-(benzo[d][1,3]dioxol-5-ylmethyl)-N′-(3-(4-chlorobenzyl)-1,2,4-thiadiazol-5-yl) spiro[3.3]heptane-2,6-diamine] | 1.4 nM |
| Cc1ccc(CNC2CC3(C2)CC(Nc2nc(Cc4ccc(Cl)cc4)ns2)C3)cc1 (stereo not shown) [Cpd B321, N-(3-(4-chlorobenzyl)-1,2,4-thiadiazol-5-yl)-N′-(4-methylbenzyl) spiro[3.3]heptane-2,6-diamine] | 8.6 nM |
| FC(F)(F)c1ccccc1CNC1CC2(C1)CC(Nc1nc(Cc3ccc(Cl)cc3)ns1)C2 (stereo not shown) [Cpd B322, N-(3-(4-chlorobenzyl)-1,2,4-thiadiazol-5-yl)-N′-(2-(trifluoromethyl)benzyl) spiro[3.3]heptane-2,6-diamine] | 2.8 nM |
| Fc1cccc(CNC2CC3(C2)CC(Nc2nc(Cc4ccc(Cl)cc4)ns2)C3)c1 (stereo not shown) [Cpd B323, N-(3-(4-chlorobenzyl)-1,2,4-thiadiazol-5-yl)-N′-(3-fluorobenzyl)spiro[3.3]heptane-2,6-diamine] | 2 nM |
| Cc1cccc(CNC2CC3(C2)CC(Nc2nc(Cc4ccc(Cl)cc4)ns2)C3)c1 (stereo not shown) [Cpd B324, N-(3-(4-chlorobenzyl)-1,2,4-thiadiazol-5-yl)-N′-(3-methylbenzyl) spiro[3.3]heptane-2,6-diamine] | 2.6 nM |
| FC(F)(F)c1cccc(CNC2CC3(C2)CC(Nc2nc(Cc4ccc(Cl)cc4)ns2)C3)c1 (stereo not shown) [Cpd B325, N-(3-(4-chlorobenzyl)-1,2,4-thiadiazol-5-yl)-N′-(3-(trifluoromethyl)benzyl) spiro[3.3]heptane-2,6-diamine] | 36.2 nM |
| CC(=O)Nc1ccc(CNC2CC3(C2)CC(Nc2nc(Cc4ccc(Cl)cc4)ns2)C3)cc1 (stereo not shown) [Cpd B326, N-(4-((6-(3-(4-chlorobenzyl)-1,2,4-thiadiazol-5-ylamino)spiro[3.3]heptan-2-ylamino)methyl)phenyl) acetamide] | 145 nM |
| COc1ccc(OC)c(CNC2CC3(C2)CC(Nc2nc(Cc4ccc(Cl)cc4)ns2)C3)c1 (stereo not shown) [Cpd B327, N-(3-(4-chlorobenzyl)-1,2,4-thiadiazol-5-yl)-N′-(2,5-dimethoxybenzyl) spiro[3.3]heptane-2,6-diamine] | 9.9 nM |
| COc1ccccc1CCNC1CC2(C1)CC(Nc1nc(Cc3ccc(Cl)cc3)ns1)C2 (stereo not shown) [Cpd B328, N-(3-(4-chlorobenzyl)-1,2,4-thiadiazol-5-yl)-N′-(2-methoxyphenethyl) spiro[3.3]heptane-2,6-diamine] | 2 nM |
| Fc1cc(F)cc(CNC2CC3(C2)CC(Nc2nc(Cc4ccc(Cl)cc4)ns2)C3)c1 (stereo not shown) [Cpd B329, N-(3-(4-chlorobenzyl)-1,2,4-thiadiazol-5-yl)-N′-(3,5-difluorobenzyl) spiro[3.3]heptane-2,6-diamine] | 2.3 nM |
| Clc1ccc(Cc2nsc(NC3CC4(CC(NCc5cccc6c5OCO6)C4)C3)n2)cc1 (stereo not shown) [Cpd B330, N-(benzo[d][1,3]dioxol-4-ylmethyl)-N′-(3-(4-chlorobenzyl)-1,2,4-thiadiazol-5-yl) spiro[3.3]heptane-2,6-diamine] | 8 nM |
| CS(=O)(=O)c1ccc(CNC2CC3(C2)CC(Nc2nc(Cc4ccc(Cl)cc4)ns2)C3)cc1 (stereo not shown) [Cpd B331, N-(3-(4-chlorobenzyl)-1,2,4-thiadiazol-5-yl)-N′-(4-(methylsulfonyl)benzyl) spiro[3.3]heptane-2,6-diamine] | 73.3 nM |
| Clc1ccc(Cc2nsc(NC3CC4(CC(NCCc5cccc(Cl)c5)C4)C3)n2)cc1 (stereo not shown) [Cpd B332, N-(3-(4-chlorobenzyl)-1,2,4-thiadiazol-5-yl)-N′-(3-chlorophenethyl) spiro[3.3]heptane-2,6-diamine] | 2 nM |
| COc1ccc(CCNC2CC3(C2)CC(Nc2nc(Cc4ccc(Cl)cc4)ns2)C3)cc1 (stereo not shown) [Cpd B333, N-(3-(4-chlorobenzyl)-1,2,4-thiadiazol-5-yl)-N′-(4-methoxyphenethyl) spiro[3.3]heptane-2,6-diamine] | 2 nM |
| Clc1ccc(Cc2nsc(NC3CC4(CC(NCCc5ccccc5Cl)C4)C3)n2)cc1 (stereo not shown) [Cpd B334, N-(3-(4-chlorobenzyl)-1,2,4-thiadiazol-5-yl)-N′-(2-chlorophenethyl) spiro[3.3]heptane-2,6-diamine] | 2 nM |
| COc1ccc(CCNC2CC3(C2)CC(Nc2nc(Cc4ccc(Cl)cc4)ns2)C3)cc1OC (stereo not shown) [Cpd B335, N-(3-(4-chlorobenzyl)-1,2,4-thiadiazol-5-yl)-N′-(3,4-dimethoxyphenethyl) spiro[3.3]heptane-2,6-diamine] | 3 nM |
| FC(F)(F)c1cccc(CCNC2CC3(C2)CC(Nc2nc(Cc4ccc(Cl)cc4)ns2)C3)c1 (stereo not shown) [Cpd B336, N-(3-(4-chlorobenzyl)-1,2,4-thiadiazol-5-yl)-N′-(3-(trifluoromethyl)phenethyl) spiro[3.3]heptane-2,6-diamine] | 7 nM |
| Cn1cc(CN2CC3(C2)CN(C(=O)NCc2ccc(F)cc2)C3)cn1 [Cpd B405] | 4820 nM |
| Cn1ccc(CN2CC3(C2)CN(C(=O)NCc2ccc(F)cc2)C3)n1 [Cpd B406] | 4620 nM |
| Cc1cccc(C(=O)N2CC3(CN(Cc4ncccc4C)C3)C2)c1 [Cpd B407] | 4310 nM |
| Cc1cccnc1CN1CC2(C1)CN(C(=O)CC13CC(C1)C3)C2 [Cpd B408] | 4000 nM |

| Compound | EC50 |
| --- | --- |
| O=C(Cc1cccnc1)N1CC2(CN(Cc3ccc(F)cc3)C2)C1 [Cpd B409] | 3720 nM |
| CCn1cc(CN2CC3(C2)CN(C(=O)NCc2ccc(F)cc2)C3)cn1 [Cpd B410] | 3320 nM |
| Cc1nc(CN2CC3(C2)CN(C(=O)C(F)(F)c2ccc(F)cc2)C3)cs1 [Cpd B411] | 3010 nM |
| Cc1cccnc1CN1CC2(C1)CN(C(=O)c1cc3ccccc3o1)C2 [Cpd B412] | 2850 nM |
| Cc1c(CN2CC3(C2)CN(C(=O)NCc2ccc(F)cc2)C3)cnn1C [Cpd B413] | 2770 nM |
| O=C(Cc1ccccn1)N1CC2(CN(Cc3ccc(F)cc3)C2)C1 [Cpd B414] | 2710 nM |
| CCc1cc(CC(=O)N2CC3(CN(Cc4ccc(F)cc4)C3)C2)ccn1 [Cpd B415] | 2410 nM |
| COc1cccc(CC(=O)N2CC3(CN(Cc4ncccc4C)C3)C2)c1 [Cpd B416] | 2220 nM |
| Cc1ncc(CN2CC3(C2)CN(C(=O)NCc2ccc(F)cc2)C3)s1 [Cpd B417] | 1690 nM |
| Cc1nc(CN2CC3(C2)CN(C(=O)NCc2ccc(F)cc2)C3)cs1 [Cpd B418] | 1330 nM |
| COc1cccc(CN2CC3(C2)CN(C(=O)Cc2ccccn2)C3)c1 [Cpd B419] | 1260 nM |
| COc1cccc(CN2CC3(C2)CN(C(=O)Nc2cccc(OC)c2)C3)c1 [Cpd B420] | 1210 nM |
| Cc1ccc(CN2CC3(C2)CN(C(=O)NCc2ccc(F)cc2)C3)[nH]1 [Cpd B421] | 981 nM |
| COc1cccc(CN2CC3(C2)CN(C(=O)NC2CC(F)(F)C2)C3)c1 [Cpd B422] | 978 nM |
| O=C(Cc1ccccc1O)N1CC2(CN(Cc3ccc(F)cc3)C2)C1 [Cpd B423] | 972 nM |
| Cc1nc(CN2CC3(C2)CN(C(=O)Cc2ccccc2F)C3)cs1 [Cpd B424] | 930 nM |
| COc1cccc(CC(=O)N2CC3(CN(Cc4ccc(F)cc4)C3)C2)c1 [Cpd B425] | 854 nM |
| Cc1nn(C)cc1CN1CC2(C1)CN(C(=O)NCc1ccc(F)cc1)C2 [Cpd B426] | 850 nM |
| Cc1cccnc1CN1CC2(C1)CN(C(=O)c1cc3ccccc3s1)C2 [Cpd B427] | 846 nM |
| COC(=O)c1ccc(CC(=O)N2CC3(CN(Cc4ccc(F)cc4)C3)C2)cc1 [Cpd B428] | 778 nM |
| Cc1nc(CN2CC3(C2)CN(C(=O)OCc2ccc(Cl)cc2)C3)cs1 [Cpd B429] | 746 nM |
| Cc1ccccc1CC(=O)N1CC2(CN(Cc3ncccc3C)C2)C1 [Cpd B430] | 690 nM |

| Compound | EC50 |
| --- | --- |
| COc1ncccc1CN1CC2(C1)CN(C(=O)NCc1ccc(F)cc1)C2 [Cpd B431] | 492 nM |
| O=C(NCc1ccc(F)cc1)N1CC2(CN(Cc3cccnc3F)C2)C1 [Cpd B432] | 482 nM |
| O=C(Cc1cccc(Cl)c1)N1CC2(CN(Cc3ccc(F)cc3)C2)C1 [Cpd B433] | 469 nM |
| Cc1ccccc1CC(=O)N1CC2(CN(Cc3ccccc3C)C2)C1 [Cpd B434] | 396 nM |
| Cc1cccnc1CN1CC2(C1)CN(C(=O)NCc1cccc(C(F)(F)F)c1)C2 [Cpd B435] | 390 nM |
| Cc1cccnc1CN1CC2(C1)CN(C(=O)Cc1ccccc1F)C2 [Cpd B436] | 389 nM |
| Cc1cccnc1CN1CC2(C1)CN(C(=O)CC1CCCC1)C2 [Cpd B437] | 354 nM |
| Cn1ncc(Cl)c1CN1CC2(C1)CN(C(=O)CC1CCC(F)(F)CC1)C2 [Cpd B438] | 317 nM |
| Cc1ccccc1CC(=O)N1CC2(CN(Cc3ccc(F)cc3)C2)C1 [Cpd B439] | 295 nM |
| Cc1cnc(CN2CC3(C2)CN(C(=O)NCc2ccc(F)cc2)C3)s1 [Cpd B440] | 260 nM |
| O=C(NC1CCC(F)(F)CC1)N1CC2(CN(Cc3ncccc3F)C2)C1 [Cpd B441] | 253 nM |
| O=C(Cc1ccnc(Cl)c1)N1CC2(CN(Cc3ccc(F)cc3)C2)C1 [Cpd B442] | 200 nM |
| Cc1cccnc1CN1CC2(C1)CN(C(=O)NCc1ccc(F)cc1)C2 [Cpd B443] | 171 nM |
| Cn1cc(Cl)c(CN2CC3(C2)CN(C(=O)NCc2ccc(F)cc2)C3)n1 [Cpd B444] | 167 nM |
| Cc1csc(CN2CC3(C2)CN(C(=O)CC2CCC(F)(F)CC2)C3)n1 [Cpd B445] | 157 nM |
| Cn1cnc(CN2CC3(C2)CN(C(=O)OC2CCC(F)(F)CC2)C3)c1Cl [Cpd B446] | 150 nM |
| Cn1cnc(CN2CC3(C2)CN(C(=O)NCC2CCC(F)(F)CC2)C3)c1Cl [Cpd B447] | 148 nM |
| O=C(OCC1CCC(F)(F)CC1)N1CC2(CN(Cc3c(F)cccc3C(F)(F)F)C2)C1 [Cpd B448] | 120 nM |
| Cc1cc(CN2CC3(C2)CN(C(=O)CC2CCC(F)(F)CC2)C3)n[nH]1 [Cpd B449] | 119 nM |
| Cc1nc(CN2CC3(C2)CN(C(=O)NC2CCC(F)(F)CC2)C3)cs1 [Cpd B450] | 116 nM |
